{"source": "PubChem BioAssay AID1259411", "about": "(Chemical Carcinogenesis Research Information System (CCRIS), 2018)", "tested_on": "rodent carcinogenicity bioassays, tumor incidence", "assay": "CCRIS carcinogenicity studies", "in_short": "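Archive of carcinogenicity, mutagenicity, tumor promotion and tumor inhibition results drawn from journals, NCI reports and other sources, expert-reviewed; covers 1985-2011 and is no longer updated.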", "note": "“Also recorded” adds a separate entry of the source. The source made the active and inactive calls. No rule for the calls is given here.", "data": [{"smiles": "Cn1c(N)nc2c3cccnc3ccc21", "values": [{"measurement": "carcinogen call", "setting": "Species: MONKEY, Strain/Sex: MACAQUE/MALE,FEMALE, Route: GAVAGE, Dose: 0, 10, 20 MG/KG 5/D/WK FOR DURATION OF STUDY (STUDY DURATION: 91 MO), Dose: 0, 10, 20 MG/KG 5/D/WK FOR DURATION OF STUDY (STUDY DURATION: 91 MO), Tumor Site: Type of Lesion: LIVER: HEPATOCELLULAR CARCINOMA", "result": "active; positive"}, {"measurement": "carcinogen call", "setting": "Species: MOUSE, Strain/Sex: B6C3F1/MALE, Route: INTRAPERITONEAL, Dose: 0, 0.625 UMOL IN 35 µL DMSO ON D 1, 8, AND 15 AFTER BIRTH (STUDY DURATION: 8 MO), Tumor Site: Type of Lesion: LIVER: HEPATOCELLULAR ADENOMA", "result": "active; positive"}, {"measurement": "carcinogen call", "setting": "Species: MOUSE, Strain/Sex: B6C3F1/MALE, Route: INTRAPERITONEAL, Dose: 0, 0.625 UMOL IN 35 µL DMSO ON D 1, 8, AND 15 AFTER BIRTH (STUDY DURATION: 12 MO), Tumor Site: Type of Lesion: LIVER: HEPATOCELLULAR ADENOMA", "result": "active; positive"}, {"measurement": "carcinogen call", "setting": "Species: MOUSE, Strain/Sex: B6C3F1/MALE, Route: INTRAPERITONEAL, Dose: 0, 1.25 UMOL IN 35 µL DMSO ON D 1, 8, AND 15 AFTER BIRTH (STUDY DURATION: 8 MO), Tumor Site: Type of Lesion: LIVER: HEPATOCELLULAR ADENOMA", "result": "active; positive"}, {"measurement": "carcinogen call", "setting": "Species: MOUSE, Strain/Sex: B6C3F1/MALE, Route: INTRAPERITONEAL, Dose: 0, 1.25 UMOL IN 35 µL DMSO ON D 1, 8, AND 15 AFTER BIRTH (STUDY DURATION: 12 MO), Tumor Site: Type of Lesion: LIVER: HEPATOCELLULAR ADENOMA, HEPATOCELLULAR CARCINOMA", "result": "active; positive"}, {"measurement": "carcinogen call", "setting": "Species: MOUSE, Strain/Sex: CD-1/FEMALE, Route: INTRAPERITONEAL, ORAL, Dose: 0, 5 µL OF A 14 MG/ML SOLUTION IN DMSO ON DAYS 1, 3, 5, 7, 10, 13, 17, 21, 24 AND 28 OF LIFE THEN 2/WK TO WK 10 FOLLOWED, Tumor Site: Type of Lesion: LIVER: CARCINOMA, LUNG: ADENOMA", "result": "active; positive"}, {"measurement": "carcinogen call", "setting": "Species: MOUSE, Strain/Sex: CD-1/MALE, Route: INTRAPERITONEAL, ORAL, Dose: 0, 5 µL OF A 14 MG/ML SOLUTION IN DMSO ON DAYS 1, 3, 5, 7, 10, 13, 17, 21, 24 AND 28 OF LIFE THEN 2/WK TO WK 10 FOLLOWED, Tumor Site: Type of Lesion: LIVER: CARCINOMA", "result": "active; positive"}, {"measurement": "carcinogen call", "setting": "Species: MOUSE, Strain/Sex: CDF1/FEMALE, Route: ORAL, Dose: 0, 0.03% IN DIET FOR UP TO 675 D (STUDY DURATION: 675 D), Tumor Site: Type of Lesion: LIVER: HEPATOCELLULAR ADENOMA OR CARCINOMA OR HEMANGIOENDOTHELIOMA, FORESTOMACH: PAPILLOMA OR SQUAMOUS CELL CARCINOMA, L, Tumor Site: Type of Lesion: LIVER: HEPATOCELLULAR ADENOMA OR CARCINOMA OR HEMANGIOENDOTHELIOMA, FORESTOMACH: PAPILLOMA OR SQUAMOUS CELL CARCINOMA, L", "result": "active; positive"}, {"measurement": "carcinogen call", "setting": "Species: MOUSE, Strain/Sex: CDF1/MALE, Route: ORAL, Dose: 0, 0.03% IN DIET FOR UP TO 675 D (STUDY DURATION: 675 D), Tumor Site: Type of Lesion: LIVER: HEPATOCELLULAR ADENOMA OR CARCINOMA OR HEMANGIOENDOTHELIOMA, FORESTOMACH: PAPILLOMA OR SQUAMOUS CELL CARCINOMA, L, Tumor Site: Type of Lesion: LIVER: HEPATOCELLULAR ADENOMA OR CARCINOMA OR HEMANGIOENDOTHELIOMA, FORESTOMACH: PAPILLOMA OR SQUAMOUS CELL CARCINOMA, L", "result": "active; positive"}, {"measurement": "carcinogen call", "setting": "Species: MOUSE, Strain/Sex: EU-PIM-1/FEMALE, Route: ORAL, Dose: 0, 0.03% IN DIET FOR 24 WK (STUDY DURATION: 40 WK)", "result": "inactive; negative"}, {"measurement": "carcinogen call", "setting": "Species: MOUSE, Strain/Sex: EU-PIM-1/MALE, Route: ORAL, Dose: 0, 0.03% IN DIET FOR 24 WK (STUDY DURATION: 40 WK)", "result": "inactive; negative"}, {"measurement": "carcinogen call", "setting": "Species: MOUSE, Strain/Sex: NON-TRANSGENIC WILD-TYPE/FEMALE, Route: ORAL, Dose: 0, 0.03% IN DIET FOR 24 WK (STUDY DURATION: 40 WK)", "result": "inactive; negative"}, {"measurement": "carcinogen call", "setting": "Species: MOUSE, Strain/Sex: NON-TRANSGENIC WILD-TYPE/MALE, Route: ORAL, Dose: 0, 0.03% IN DIET FOR 24 WK (STUDY DURATION: 40 WK)", "result": "inactive; negative"}, {"measurement": "carcinogen call", "setting": "Species: MOUSE, Strain/Sex: SEVERE COMBINED IMMUNODEFICIENT/FEMALE, Route: ORAL, Dose: 0, 300 PPM IN THE DIET FOR 78 WK (STUDY DURATION: 78 WK), Tumor Site: Type of Lesion: LIVER: HEPATOCELLULAR CARCINOMA", "result": "active; positive"}, {"measurement": "carcinogen call", "setting": "Species: MOUSE, Strain/Sex: TRANSGENIC EU-PIM-1/FEMALE, Route: ORAL, Dose: 0, 0.03% IN DIET FOR 24 WK (STUDY DURATION: 40 WK)", "result": "inactive; negative"}, {"measurement": "carcinogen call", "setting": "Species: MOUSE, Strain/Sex: TRANSGENIC EU-PIM-1/MALE, Route: ORAL, Dose: 0, 0.03% IN DIET FOR 24 WK (STUDY DURATION: 40 WK)", "result": "inactive; negative"}, {"measurement": "carcinogen call", "setting": "Species: MOUSE, Strain/Sex: WILD-TYPE/FEMALE, Route: ORAL, Dose: 0, 0.03% IN DIET FOR 24 WK (STUDY DURATION: 40 WK)", "result": "inactive; negative"}, {"measurement": "carcinogen call", "setting": "Species: MOUSE, Strain/Sex: WILD-TYPE/MALE, Route: ORAL, Dose: 0, 0.03% IN DIET FOR 24 WK (STUDY DURATION: 40 WK)", "result": "inactive; negative"}, {"measurement": "carcinogen call", "setting": "Species: Mouse, Strain/Sex: Non transgenic rasH2 Wild-type/ Female (10/10)/(15/15), Route: Oral, Dose: 300 ppm in the diet starting at 7 weeks of age (Study duration: 26 weeks)", "result": "inactive; negative: although only hyperplasia observed in wild-type mouse, forestomach pa"}, {"measurement": "carcinogen call", "setting": "Species: Mouse, Strain/Sex: Non transgenic rasH2 Wild-type/ Male (10/10)/(15/15), Route: Oral, Dose: 300 ppm in the diet starting at 7 weeks of age (Study duration: 26 wks)", "result": "inactive; negative; although only hyperplasia observed in wild-type mouse, forestomach pa"}, {"measurement": "carcinogen call", "setting": "Species: Mouse, Strain/Sex: Parp-1+/+ C57BL/6/Male, Route: Oral, Dose: 300 ppm in diet for 60 wk, study duration 60 wk, Tumor Site: Type of Lesion: Spleen: Malignant lymphoma (3/18)", "result": "active; positive (no lung adenomas or forestomach papillomas found). parp-1 deficiency (; also recorded: active; positive (however, no lung adenomas or forestomach papillomas found. parp-1 defi"}, {"measurement": "carcinogen call", "setting": "Species: RAT, Strain/Sex: F344/MALE, Route: INTRARECTAL, Dose: 0, 50.5 MG/KG IN 1.7 ML/KG DMSO INFUSED 3/WK FOR 2 MO THEN 2/WK FOR DURATION OF STUDY (STUDY DURATION: 18 MO), Tumor Site: Type of Lesion: COLON: CARCINOMA, SKIN: SEBACEOUS SQUAMOUS CELL CARCINOMA", "result": "active; positive"}, {"measurement": "carcinogen call", "setting": "Species: RAT, Strain/Sex: SPRAGUE-DAWLEY/FEMALE, Route: GAVAGE, Dose: 0, 0.35 MMOL/KG BW IN 0.25 ML OF 5% EMULPHOR IN WATER 3/WK FOR WK 1-4 THEN 2/WK FOR WK 5-8 FOLLOWED BY 1/WK FOR 23 WK (S, Tumor Site: Type of Lesion: MAMMARY GLAND: CARCINOMA, LIVER: TUMOR, EAR DUCT: TUMOR, Tumor Site: Type of Lesion: MAMMARY GLAND: CARCINOMA, LIVER: TUMOR, EAR DUCT: TUMOR", "result": "active; positive"}, {"measurement": "carcinogen call", "setting": "Species: RAT, Strain/Sex: WISTAR/MALE, Route: INTRAGASTRIC, Dose: 0, 10 MG/KG IN ACIDIFIED WATER 1/D FOR 2 WK (STUDY DURATION: 58 WK)", "result": "inactive; negative"}]}, {"smiles": "Nc1nc(-c2ccc([N+](=O)[O-])o2)cs1", "values": [{"measurement": "carcinogen call", "setting": "Species: RAT, Strain/Sex: F344/FEMALE, Route: ORAL, Dose: 0.166% IN DIET FOR 52 WK, Tumor Site: Type of Lesion: FORESTOMACH: PAPILLOMA, CARCINOMA, URINARY BLADDER: PAPILLOMA, CARCINOMA", "result": "active; positive"}, {"measurement": "carcinogen call", "setting": "Species: RAT, Strain/Sex: F344/MALE,FEMALE, Route: SUBCUTANEOUS, Dose: 10 MG/KG IN DMSO:WATER 1/WK FOR 8 WK, THEN 1.4 MG/RAT 1/WK FOR 46 WK, Tumor Site: Type of Lesion: INJECTION SITE: SARCOMA", "result": "active; positive"}]}, {"smiles": "OC1c2cc3ccc4ccccc4c3nc2C2OC2C1O", "note": "(stereo not given)", "values": [{"measurement": "carcinogen call", "setting": "Species: MOUSE, Strain/Sex: SWISS/FEMALE, Route: INTRAPERITONEAL, Dose: 0, 1.05 UMOL GIVEN AS 150 NMOL IN 5 µL DMSO WITHIN 24 HR OF BIRTH, 300 NMOL IN 10 µL DMSO ON D 8 OF LIFE, AND 600 NMOL I", "result": "inactive; negative"}, {"measurement": "carcinogen call", "setting": "Species: MOUSE, Strain/Sex: SWISS/MALE, Route: INTRAPERITONEAL, Dose: 0, 1.05 UMOL GIVEN AS 150 NMOL IN 5 µL DMSO WITHIN 24 HR OF BIRTH, 300 NMOL IN 10 µL DMSO ON D 8 OF LIFE, AND 600 NMOL I", "result": "inactive; negative"}]}, {"smiles": "O=NN1CCOC1=O", "values": [{"measurement": "carcinogen call", "setting": "Species: HAMSTER, Strain/Sex: SYRIAN/FEMALE, Route: GAVAGE, Dose: 0, 12 MG/ML ((0.2 ML OF A SOLUTION IN ETHYL ACETATE/CORN OIL (1:2)) 1/WK FOR 30 WK (STUDY DURATION: LIFE SPAN), Tumor Site: Type of Lesion: FORESTOMACH: SQUAMOUS CELL CARCINOMA OR ADENOMA", "result": "active; positive"}, {"measurement": "carcinogen call", "setting": "Species: RAT, Strain/Sex: F344/FEMALE, Route: INTRAVESICULAR, Dose: 0, 2.4 MG 2/WK FOR 8 WK (STUDY DURATION: LIFETIME), Tumor Site: Type of Lesion: BLADDER: TUMOR", "result": "active; positive"}]}]}
